Data published in PMC5896373 (Molecular Pharmacology, 2018).

Legend:
P2X7R point mutant T94V = target: T1, P2X7R point mutant T94V (Homo sapiens, UniProt Q99572, I21V/M24R/N16P/N25R/Q22R/R20V/S23N/T19I/T94V/Y26L); assay: Two-electrode voltage clamp of ATP-evoked currents in Xenopus oocytes; type: cell-based; settings: EC90 ATP, mean ± S.E.M.
T1 construct: expressed in transfected cells; host or cells: Xenopus laevis oocytes (cRNA injection)
Experimental: (§1) Additional point mutants were made using the QuikChange mutagenesis kit (Stratagene California, La Jolla, CA). The production of the correct mutations and absence of coding errors was determined by DNA sequencing (Automated ABI Sequencing Service, University of Leicester, UK). cRNA was generated for the mutants and 50 nl (50 ng) was injected into manually defoliculated stage V Xenopus laevis oocytes using an Inject+Matic microinjector (J.A. Gabay, Inject+Matic, Geneva, Switzerland). Injected oocytes were stored at 16°C in ND96 buffer [in millimolar concentrations, NaCl 96, KCl 2, CaCl2 1.8, MgCl2 1, sodium pyruvate 5, and HEPES 5 (pH 7.6) supplemented with 50 μg/ml gentamycin and 50 μg/ml tetracycline]. Three to seven days postinjection two-electrode voltage clamp recordings were made from oocytes bathed in divalent-free ND96 buffer (in millimolar concentrations, NaCl 96, KCl 2, sodium pyruvate 5, HEPES 5, and 0.1 flufenamic acid, pH 7.6). Oocytes were voltage clamped at a holding potential of −60 mV with a GeneClamp500B amplifier (Molecular Devices).
Inhibition by the antagonists was expressed as the percentage of the peak current amplitude of an EC90 concentration of ATP recorded before the application of antagonist (ATP gave reproducible responses to ATP in the absence of antagonist). […]

P2X7R point mutant A166G = target: T2, P2X7R point mutant A166G (Homo sapiens, UniProt Q99572, A166G/I21V/M24R/N16P/N25R/Q22R/R20V/S23N/T19I/Y26L); assay: as above; type: cell-based; settings: EC90 ATP, mean ± S.E.M.
T2 construct: expressed in transfected cells; host or cells: Xenopus laevis oocytes (cRNA injection)
Experimental: (§2) Injected oocytes were stored at 16°C in ND96 buffer [in millimolar concentrations, NaCl 96, KCl 2, CaCl2 1.8, MgCl2 1, sodium pyruvate 5, and HEPES 5 (pH 7.6) supplemented with 50 μg/ml gentamycin and 50 μg/ml tetracycline]. Three to seven days postinjection two-electrode voltage clamp recordings were made from oocytes bathed in divalent-free ND96 buffer (in millimolar concentrations, NaCl 96, KCl 2, sodium pyruvate 5, HEPES 5, and 0.1 flufenamic acid, pH 7.6). Oocytes were voltage clamped at a holding potential of −60 mV with a GeneClamp500B amplifier (Molecular Devices).
(§3) Inhibition by the antagonists was expressed as the percentage of the peak current amplitude of an EC90 concentration of ATP recorded before the application of antagonist (ATP gave reproducible responses to ATP in the absence of antagonist). Inhibition curves were fitted with the Hill equation (variable slope) using GraphPad Prism 6 (GraphPad Software, San Diego, CA). […] Individual concentration-response curves were generated for individual experiments, and statistical analysis was carried out on the data generated. When shown in figures, the inhibition curves are fitted to the mean normalized data. […] Data are shown as mean ± S.E.M. In all cases n ≥ 3 for all data points.

P2X7R point mutant E305A = target: T3, P2X7R point mutant E305A (Homo sapiens, UniProt Q99572, E305A/I21V/M24R/N16P/N25R/Q22R/R20V/S23N/T19I/Y26L); assay: as above; type: cell-based; settings: EC90 ATP, mean ± S.E.M.
T3 construct: expressed in transfected cells; host or cells: Xenopus laevis oocytes (cRNA injection)
Experimental: as §2
(§4) Inhibition by the antagonists was expressed as the percentage of the peak current amplitude of an EC90 concentration of ATP recorded before the application of antagonist (ATP gave reproducible responses to ATP in the absence of antagonist). Inhibition curves were fitted with the Hill equation (variable slope) using GraphPad Prism 6 (GraphPad Software, San Diego, CA). […] Individual concentration-response curves were generated for individual experiments, and statistical analysis was carried out on the data generated. […] Data are shown as mean ± S.E.M. In all cases n ≥ 3 for all data points.

P2X7R mutant Insert G99 = target: T4, P2X7R mutant Insert G99 (Homo sapiens, UniProt Q99572, I21V/INS99D/M24R/N16P/N25R/Q22R/R20V/S23N/T19I/Y26L); assay: as above; type: cell-based; settings: EC90 ATP, mean ± S.E.M.
T4 construct: expressed in transfected cells; host or cells: Xenopus laevis oocytes (cRNA injection)
T4 sequence (Q99572 with tags, fused parts or gaps N16P/T19I/R20V/I21V/Q22R/S23N/M24R/N25R/Y26L/INS99D): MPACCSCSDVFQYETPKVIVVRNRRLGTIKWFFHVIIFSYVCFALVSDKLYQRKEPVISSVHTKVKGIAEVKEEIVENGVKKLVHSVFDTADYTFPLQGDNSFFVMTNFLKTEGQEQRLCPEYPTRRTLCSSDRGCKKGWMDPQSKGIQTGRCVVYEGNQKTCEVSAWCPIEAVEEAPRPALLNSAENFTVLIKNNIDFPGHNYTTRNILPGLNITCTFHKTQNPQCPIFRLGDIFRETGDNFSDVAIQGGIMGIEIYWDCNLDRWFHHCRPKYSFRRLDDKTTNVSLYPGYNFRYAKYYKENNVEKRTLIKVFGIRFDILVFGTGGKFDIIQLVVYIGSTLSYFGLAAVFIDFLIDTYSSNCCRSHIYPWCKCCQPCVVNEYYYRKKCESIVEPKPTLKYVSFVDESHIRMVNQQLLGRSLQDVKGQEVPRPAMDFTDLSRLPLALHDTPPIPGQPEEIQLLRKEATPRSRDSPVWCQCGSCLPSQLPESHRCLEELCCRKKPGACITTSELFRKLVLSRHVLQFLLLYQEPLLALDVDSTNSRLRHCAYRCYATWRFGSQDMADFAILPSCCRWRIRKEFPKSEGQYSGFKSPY
Experimental: as §2, §3

P2X7R point mutant Q116A = target: T5, P2X7R point mutant Q116A (Homo sapiens, UniProt Q99572, I21V/M24R/N16P/N25R/Q116A/Q22R/R20V/S23N/T19I/Y26L); assay: as above; type: cell-based; settings: EC90 ATP, mean ± S.E.M.
T5 construct: expressed in transfected cells; host or cells: Xenopus laevis oocytes (cRNA injection)
Experimental: as §2, §4

P2X7R point mutant Y93A = target: T6, P2X7R point mutant Y93A (Homo sapiens, UniProt Q99572, I21V/M24R/N16P/N25R/Q22R/R20V/S23N/T19I/Y26L/Y93A); assay: as above; type: cell-based; settings: EC90 ATP, mean ± S.E.M.
T6 construct: expressed in transfected cells; host or cells: Xenopus laevis oocytes (cRNA injection)
Experimental: as §2, §4

P2X7R point mutant V304C = target: T7, P2X7R point mutant V304C (Homo sapiens, UniProt Q99572, I21V/M24R/N16P/N25R/Q22R/R20V/S23N/T19I/V304C/Y26L); assay: as above; type: cell-based; settings: EC90 ATP, mean ± S.E.M.
T7 construct: expressed in transfected cells; host or cells: Xenopus laevis oocytes (cRNA injection)
Experimental: as §2, §4

P2X7R point mutant S165F = target: T8, P2X7R point mutant S165F (Homo sapiens, UniProt Q99572, I21V/M24R/N16P/N25R/Q22R/R20V/S165F/S23N/T19I/Y26L); assay: as above; type: cell-based; settings: EC90 ATP, mean ± S.E.M.
T8 construct: expressed in transfected cells; host or cells: Xenopus laevis oocytes (cRNA injection)
Experimental: as §2, §3

[1] = target: T9, chimeric P2X7/1 receptor 112–118 (Homo sapiens, UniProt Q99572, E112P/E115T/G113K/I21V/L118Y/M24R/N16P/N25R/Q22R/R117G/R20V/S23N/T19I/Y26L); assay: cell-based; type: cell-based
T9 construct: expressed in transfected cells; host or cells: Xenopus laevis oocytes (cRNA injection)
Experimental: as §1, §4

P2X7R point mutant T308A = target: T10, P2X7R point mutant T308A (Homo sapiens, UniProt Q99572, I21V/M24R/N16P/N25R/Q22R/R20V/S23N/T19I/T308A/Y26L); assay: Two-electrode voltage clamp of ATP-evoked currents in Xenopus oocytes; type: cell-based; settings: EC90 ATP, mean ± S.E.M.
T10 construct: expressed in transfected cells; host or cells: Xenopus laevis oocytes (cRNA injection)
Experimental: as §2, §4

P2X7R point mutant K306C = target: T11, P2X7R point mutant K306C (Homo sapiens, UniProt Q99572, I21V/K306C/M24R/N16P/N25R/Q22R/R20V/S23N/T19I/Y26L); assay: as above; type: cell-based; settings: EC90 ATP, mean ± S.E.M.
T11 construct: expressed in transfected cells; host or cells: Xenopus laevis oocytes (cRNA injection)
Experimental: as §2, §4

[2] = target: T12, chimeric P2X7/1 receptor 89–94 (Homo sapiens, UniProt Q99572, I21V/M24R/N16P/N25R/Q22R/R20V/S23N/T19I/T90V/T94V/Y26L); assay: as above; type: cell-based; settings: for IC50: inhibition of EC90 ATP response
T12 construct: expressed in transfected cells; host or cells: Xenopus laevis oocytes (cRNA injection)
T12 sequence (Q99572 1-595 N16P/T19I/R20V/I21V/Q22R/S23N/M24R/N25R/Y26L/T90V/T94V): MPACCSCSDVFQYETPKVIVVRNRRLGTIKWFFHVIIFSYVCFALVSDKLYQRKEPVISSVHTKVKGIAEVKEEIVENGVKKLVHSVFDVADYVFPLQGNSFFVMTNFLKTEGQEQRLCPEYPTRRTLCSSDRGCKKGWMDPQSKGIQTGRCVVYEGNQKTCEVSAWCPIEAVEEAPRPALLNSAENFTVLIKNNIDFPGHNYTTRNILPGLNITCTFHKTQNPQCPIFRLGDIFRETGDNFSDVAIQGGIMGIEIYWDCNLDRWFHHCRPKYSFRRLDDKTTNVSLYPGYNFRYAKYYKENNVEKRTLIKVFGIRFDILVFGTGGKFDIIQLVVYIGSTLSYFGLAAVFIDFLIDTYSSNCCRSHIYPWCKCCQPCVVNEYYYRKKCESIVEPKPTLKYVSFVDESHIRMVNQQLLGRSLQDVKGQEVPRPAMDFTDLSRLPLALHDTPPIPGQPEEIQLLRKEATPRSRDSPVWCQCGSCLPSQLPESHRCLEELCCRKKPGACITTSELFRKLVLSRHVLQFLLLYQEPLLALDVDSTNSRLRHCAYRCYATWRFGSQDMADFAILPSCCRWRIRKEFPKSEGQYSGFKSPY
Experimental: The production of the correct mutations and absence of coding errors was determined by DNA sequencing (Automated ABI Sequencing Service, University of Leicester, UK). cRNA was generated for the mutants and 50 nl (50 ng) was injected into manually defoliculated stage V Xenopus laevis oocytes using an Inject+Matic microinjector (J.A. Gabay, Inject+Matic, Geneva, Switzerland). Injected oocytes were stored at 16°C in ND96 buffer [in millimolar concentrations, NaCl 96, KCl 2, CaCl2 1.8, MgCl2 1, sodium pyruvate 5, and HEPES 5 (pH 7.6) supplemented with 50 μg/ml gentamycin and 50 μg/ml tetracycline]. Three to seven days postinjection two-electrode voltage clamp recordings were made from oocytes bathed in divalent-free ND96 buffer (in millimolar concentrations, NaCl 96, KCl 2, sodium pyruvate 5, HEPES 5, and 0.1 flufenamic acid, pH 7.6). Oocytes were voltage clamped at a holding potential of −60 mV with a GeneClamp500B amplifier (Molecular Devices).
as §4

P2X7R point mutant Y298A = target: T13, P2X7R point mutant Y298A (Homo sapiens, UniProt Q99572, I21V/M24R/N16P/N25R/Q22R/R20V/S23N/T19I/Y26L/Y298A); assay: cell-based
T13 construct: expressed in transfected cells; host or cells: Xenopus laevis oocytes (cRNA injection)
T13 sequence (Q99572 whole entry N16P/T19I/R20V/I21V/Q22R/S23N/M24R/N25R/Y26L/Y298A): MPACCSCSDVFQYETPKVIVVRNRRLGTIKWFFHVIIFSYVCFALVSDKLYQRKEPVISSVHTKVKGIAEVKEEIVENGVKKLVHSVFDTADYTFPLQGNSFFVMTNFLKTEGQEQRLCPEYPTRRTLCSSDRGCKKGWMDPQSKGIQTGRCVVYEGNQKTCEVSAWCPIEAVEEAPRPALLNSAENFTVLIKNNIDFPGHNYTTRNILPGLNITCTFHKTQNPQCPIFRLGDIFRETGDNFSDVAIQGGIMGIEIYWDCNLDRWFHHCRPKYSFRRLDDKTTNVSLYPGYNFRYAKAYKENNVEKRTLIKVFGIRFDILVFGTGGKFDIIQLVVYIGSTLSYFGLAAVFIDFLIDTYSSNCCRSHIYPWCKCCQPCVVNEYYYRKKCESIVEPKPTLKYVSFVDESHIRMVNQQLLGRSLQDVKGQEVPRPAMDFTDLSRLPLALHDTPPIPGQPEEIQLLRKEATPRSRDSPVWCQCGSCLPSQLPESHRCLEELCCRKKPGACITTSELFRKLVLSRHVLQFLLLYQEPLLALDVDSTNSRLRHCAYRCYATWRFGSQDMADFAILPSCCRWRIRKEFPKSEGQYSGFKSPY
Experimental: as §2, §3

T5 sequence (Q99572 whole entry N16P/T19I/R20V/I21V/Q22R/S23N/M24R/N25R/Y26L/Q116A): as the sequence (Q99572 whole entry N16P/T19I/R20V/I21V/Q22R/S23N/M24R/N25R/Y26L/Y298A) above, with Q116A, A298Y counted along it
T2 sequence (Q99572 whole entry N16P/T19I/R20V/I21V/Q22R/S23N/M24R/N25R/Y26L/A166G): as the sequence (Q99572 whole entry N16P/T19I/R20V/I21V/Q22R/S23N/M24R/N25R/Y26L/Y298A) above, with A166G, A298Y counted along it
T10 sequence (Q99572 whole entry N16P/T19I/R20V/I21V/Q22R/S23N/M24R/N25R/Y26L/T308A): as the sequence (Q99572 whole entry N16P/T19I/R20V/I21V/Q22R/S23N/M24R/N25R/Y26L/Y298A) above, with A298Y, T308A counted along it
T1 sequence (Q99572 whole entry N16P/T19I/R20V/I21V/Q22R/S23N/M24R/N25R/Y26L/T94V): as the sequence (Q99572 whole entry N16P/T19I/R20V/I21V/Q22R/S23N/M24R/N25R/Y26L/Y298A) above, with T94V, A298Y counted along it
T6 sequence (Q99572 whole entry N16P/T19I/R20V/I21V/Q22R/S23N/M24R/N25R/Y26L/Y93A): as the sequence (Q99572 whole entry N16P/T19I/R20V/I21V/Q22R/S23N/M24R/N25R/Y26L/Y298A) above, with Y93A, A298Y counted along it
T9 sequence (Q99572 whole entry N16P/T19I/R20V/I21V/Q22R/S23N/M24R/N25R/Y26L/E112P/G113K/E115T/R117G/L118Y): as the sequence (Q99572 whole entry N16P/T19I/R20V/I21V/Q22R/S23N/M24R/N25R/Y26L/Y298A) above, with E112P, G113K, E115T, R117G, L118Y, A298Y counted along it
T8 sequence (Q99572 whole entry N16P/T19I/R20V/I21V/Q22R/S23N/M24R/N25R/Y26L/S165F): as the sequence (Q99572 whole entry N16P/T19I/R20V/I21V/Q22R/S23N/M24R/N25R/Y26L/Y298A) above, with S165F, A298Y counted along it
T3 sequence (Q99572 whole entry N16P/T19I/R20V/I21V/Q22R/S23N/M24R/N25R/Y26L/E305A): as the sequence (Q99572 whole entry N16P/T19I/R20V/I21V/Q22R/S23N/M24R/N25R/Y26L/Y298A) above, with A298Y, E305A counted along it
T7 sequence (Q99572 whole entry N16P/T19I/R20V/I21V/Q22R/S23N/M24R/N25R/Y26L/V304C): as the sequence (Q99572 whole entry N16P/T19I/R20V/I21V/Q22R/S23N/M24R/N25R/Y26L/Y298A) above, with A298Y, V304C counted along it
T11 sequence (Q99572 whole entry N16P/T19I/R20V/I21V/Q22R/S23N/M24R/N25R/Y26L/K306C): as the sequence (Q99572 whole entry N16P/T19I/R20V/I21V/Q22R/S23N/M24R/N25R/Y26L/Y298A) above, with A298Y, K306C counted along it

Structure (SMILES)	IC50 (P2X7R point mutant T94V)	IC50 (P2X7R point mutant A166G)	IC50 (P2X7R point mutant E305A)	IC50 (P2X7R mutant Insert G99)	IC50 (P2X7R point mutant Q116A)	IC50 (P2X7R point mutant Y93A)	IC50 (P2X7R point mutant V304C)	IC50 (P2X7R point mutant S165F)	IC50 [1]	IC50 (P2X7R point mutant T308A)	IC50 (P2X7R point mutant K306C)	fold decrease in antagonist sensitivity/affinity relative to P2X7-2Nβ ([2]; chimera 89–94)	IC50 ([2]; chimera 89–94)	IC50 (P2X7R point mutant Y298A)	inhibition at 10 µM ([2]; P2X7, read-out: inhibition of ATP responses)
COc1ccc(CC(=O)NC(N=C(NC#N)Nc2cccc3ncccc23)C(C)(C)C)cc1OC (stereo not shown) [A740003, N-[1-[[(cyanoamino)(5-quinolinylamino)methylene]amino]-2,2-dimethylpropyl]-3,4-dimethoxybenzeneacetamide]	398 nM	316 nM	25.1 nM	1580 nM	316 nM	100 nM	100 nM	200 nM	251 nM	100 nM	316 nM	~3 fold	251 nM	2000 nM	
Cl.Clc1cccc(-c2nnnn2Cc2cccnc2)c1Cl.O [A438079, 3-(5-(2,3-dichlorophenyl)-1H-tetrazol-1-yl)methyl pyridine hydrochloride hydrate]	> 100000 nM	3980 nM	200 nM	12600 nM	1260 nM	3980 nM	63.1 nM	7940 nM	3160 nM	1000 nM	1580 nM		> 100000 nM	6310 nM	15.7%
